Experimental data taken from US20100029609A1 (priority 2006, published 2010).

These molecules were tested against T1, human S1P1 receptors (Homo sapiens, UniProt P21453) (assay: Human S1P Receptor Calcium FLIPR Antagonist Assay, HeLa Gα16 S1P1). Settings: HeLa-S1P1/Gα16 cells; antagonism of Ca2+ signal of probing agonist GNF-AC-1 at EC80.
T1 construct: expressed in transfected cells; host or cells: HeLa (human cervix carcinoma, ATCC CCL2), HeLa-S1P1/Gα16 cell clone 1
Format: cell-based
Text: Human S1P Receptor Calcium FLIPR Antagonist Assays
The assay measures intracellular changes of Ca^2+ mediated by the synthetic probing agonist 3-{[2-(2-Trifluoromethyl-biphenyl-4-yl)-benzo[b]thiophen-5-ylmethyl]-amino}-propionic acid (GNF-AC-1) in the HeLa-S1P1/Gα16 cell clone 1: HeLa (human cervix carcinoma, ATCC CCL2) cells stably expressing N-terminally myc-tagged human S1P1 receptors (GenBank™ accession No. NM_001400; UNIPROT P21453) and promiscuous Gα16 protein (GenBank™ accession number M63904, Swissprot P30679) are cultured at 37° C., 5% CO2, and 95% relative humidity. The cells are plated in 384 well black plates (10,000 cells per well). After 24 hours the cells are loaded with Fluo4-AM (1.6 μM in HBSS and 2.5 mM probenicid) for 1 hour at 37° C. After washing, the cells are transferred to the FLIPR. The test compounds are added at different concentrations (≦30 μM) in HBSS in the presence of 0.1% BSA and changes in fluorescence are recorded (indication of agonism). The probing agonist is added 15 minutes afterwards to the wells at a concentration giving 80% of the maximal activity (EC80). After each addition time points are collected as follows: 20 time points (2 seconds) before the addition of the agonist (Fmin) and 60 time points (1 or 2 seconds) after the addition of the probing agonist. This allows the determination of the maximal fluorescence (Fmax). The ratio (Fmax-Fmin)/Fmin is plotted against the log of the concentration of the test compounds and the IC50 (relative antagonism) is determined with the help of XLfit-4 software. […] A dose response curve of the probing agonist is determined on each plate in parallel. The compounds of the invention are typically active in this assay at a concentration ranging typically from <1 nM to 30 μM, usually from less than 1 nanomolar to 1 micromolar.

T1 sequence (P21453 whole entry): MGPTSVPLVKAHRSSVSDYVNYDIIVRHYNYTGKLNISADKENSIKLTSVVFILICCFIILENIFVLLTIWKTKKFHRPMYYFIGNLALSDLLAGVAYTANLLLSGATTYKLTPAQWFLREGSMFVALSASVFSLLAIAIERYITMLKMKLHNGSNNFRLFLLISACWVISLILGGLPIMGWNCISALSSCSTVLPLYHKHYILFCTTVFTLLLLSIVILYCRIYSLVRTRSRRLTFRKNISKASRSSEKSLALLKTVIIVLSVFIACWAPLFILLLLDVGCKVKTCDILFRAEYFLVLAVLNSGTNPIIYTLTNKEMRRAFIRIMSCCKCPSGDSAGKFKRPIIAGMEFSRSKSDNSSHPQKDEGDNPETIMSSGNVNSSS

Going from `Cc1cc(S(=O)(=O)Nc2cccc(-c3cc(C)c(C(=O)N[C@@H](CO)C(=O)O)c(C)c3)c2)c(C)cc1Cl` [Example 131, (S)-2-{[3′-(4-Chloro-2,5-dimethyl-benzenesulfonylamino)-3,5-dimethyl-biphenyl-4-carbonyl]-amino}-3-hydroxy-propionic acid] to `Cc1cc(S(=O)(=O)Nc2cccc(-c3cc(C)c(C(=O)N[C@H](CO)C(=O)O)c(C)c3)c2)c(C)cc1Cl` [Example 133, (R)-2-{[3′-(4-Chloro-2,5-dimethyl-benzenesulfonylamino)-3,5-dimethyl-biphenyl-4-carbonyl]-amino}-3-hydroxy-propionic acid], the IC50 rises from 0.6 nM to 3.5 nM (5.8-fold). The first is the more potent here.

First: Cc1cc(S(=O)(=O)Nc2cccc(-c3cc(C)c(C(=O)N[C@@H](C)C(=O)O)c(C)c3)c2)c(C)cc1Cl [Example 132, (S)-2-{[3′-(4-Chloro-2,5-dimethyl-benzenesulfonylamino)-3,5-dimethyl-biphenyl-4-carbonyl]-amino}-propionic acid]
Second: Cc1cc(S(=O)(=O)Nc2cccc(-c3cc(C)c(C(=O)N[C@H](C)C(=O)O)c(C)c3)c2)c(C)cc1Cl [Example 134, (R)-2-{[3′-(4-Chloro-2,5-dimethyl-benzenesulfonylamino)-3,5-dimethyl-biphenyl-4-carbonyl]-amino}-propionic acid]
The IC50 of the first is 6.4-fold lower: 1.1 nM for the first, 7 nM for the second. The first is the more potent here.

Going from `CC[C@H](NC(=O)c1c(C)cc(-c2cccc(NS(=O)(=O)c3cc(C)c(Cl)cc3C)c2)cc1C)C(=O)O` [Example 135, (S)-2-{[3′-(4-Chloro-2,5-dimethyl-benzenesulfonylamino)-3,5-dimethyl-biphenyl-4-carbonyl]-amino}-butyric acid] to `Cc1cc(S(=O)(=O)Nc2cccc(-c3cc(C)c(C(=O)N[C@@H](CN)C(=O)O)c(C)c3)c2)c(C)cc1Cl` [Example 142, (S)-3-Amino-2-{[3′-(4-chloro-2,5-dimethyl-benzenesulfonylamino)-3,5-dimethyl-biphenyl-4-carbonyl]-amino}-propionic acid], the IC50 rises from 1.7 nM to 5.5 nM (3.2-fold).

Going from `COC[C@H](NC(=O)c1c(C)cc(-c2cccc(NS(=O)(=O)c3cc(C)c(Cl)cc3C)c2)cc1C)C(=O)O` [Example 136, (S)-2-{[3′-(4-Chloro-2,5-dimethyl-benzenesulfonylamino)-3,5-dimethyl-biphenyl-4-carbonyl]-amino}-3-methoxy-propionic acid] to `Cc1cc(S(=O)(=O)Nc2cccc(-c3cc(C)c(C(=O)N[C@H](CN)C(=O)O)c(C)c3)c2)c(C)cc1Cl` [Example 143, (R)-3-Amino-2-{[3′-(4-chloro-2,5-dimethyl-benzenesulfonylamino)-3,5-dimethyl-biphenyl-4-carbonyl]-amino}-propionic acid], the IC50 rises from 1.7 nM to 5 nM (2.9-fold). The first is the more potent here.

Compared with `Cc1cc(S(=O)(=O)Nc2cccc(-c3cc(C)c(C(=O)NCC(=O)O)c(C)c3)c2)c(C)cc1Cl` [Example 137, {[3′-(4-Chloro-2,5-dimethyl-benzenesulfonylamino)-3,5-dimethyl-biphenyl-4-carbonyl]-amino}-acetic acid], `Cc1cc(S(=O)(=O)Nc2cccc(-c3cc(C)c(C(=O)NC(C)(C)C(=O)O)c(C)c3)c2)c(C)cc1Cl` [Example 148, 2-{[3′-(4-Chloro-2,5-dimethyl-benzenesulfonylamino)-3,5-dimethyl-biphenyl-4-carbonyl]-amino}-2-methyl-propionic acid] is 5-fold higher in IC50: 1 nM for the first, 5 nM for the second. The first is the more potent here.

`Cc1cc(S(=O)(=O)Nc2cccc(-c3cc(C)c(C(=O)N(C)[C@@H](CO)C(=O)O)c(C)c3)c2)c(C)cc1Cl` [Example 138, (S)-2-{[3′-(4-Chloro-2,5-dimethyl-benzenesulfonylamino)-3,5-dimethyl-biphenyl-4-carbonyl]-methyl-amino}-3-hydroxy-propionic acid] and `Cc1cc(S(=O)(=O)Nc2cccc(-c3cc(C)c(C(=O)N(C)[C@@H](C)C(=O)O)c(C)c3)c2)c(C)cc1Cl` [Example 139, (S)-2-{[3′-(4-Chloro-2,5-dimethyl-benzenesulfonylamino)-3,5-dimethyl-biphenyl-4-carbonyl]-methyl-amino}-propionic acid] are the same in IC50: 1.1 nM for the first, 1.1 nM for the second.

First: Cc1cc(S(=O)(=O)Nc2cccc(-c3cc(C)c(C(=O)NC4(C(=O)O)CN(C(=O)OC(C)(C)C)C4)c(C)c3)c2)c(C)cc1Cl [Example 144, 3-{[3′-(4-Chloro-2,5-dimethyl-benzenesulfonylamino)-3,5-dimethyl-biphenyl-4-carbonyl]-amino}-azetidine-1,3-dicarboxylic acid mono-tert-butyl ester]
Second: Cc1cc(S(=O)(=O)Nc2cccc(-c3cc(C)c(C(=O)NC4(C(=O)O)CN(C)C4)c(C)c3)c2)c(C)cc1Cl [Example 150, 3-{[3′-(4-Chloro-2,5-dimethyl-benzenesulfonylamino)-3,5-dimethyl-biphenyl-4-carbonyl]-amino}-1-methyl-azetidine-3-carboxylic acid]
The IC50 of the first is 2.5-fold higher: 4 nM for the first, 1.6 nM for the second.

`Cc1cc(S(=O)(=O)Nc2cccc(-c3cc(C)c(C(=O)NC4(C(=O)O)CNC4)c(C)c3)c2)c(C)cc1Cl` [Example 145, 3-{[3′-(4-Chloro-2,5-dimethyl-benzenesulfonylamino)-3,5-dimethyl-biphenyl-4-carbonyl]-amino}-azetidine-3-carboxylic acid] and `Cc1cc(S(=O)(=O)Nc2cccc(-c3cc(C)c(C(=O)NC4(C(=O)O)CC4)c(C)c3)c2)c(C)cc1Cl` [Example 149, 1-{[3′-(4-Chloro-2,5-dimethyl-benzenesulfonylamino)-3,5-dimethyl-biphenyl-4-carbonyl]-amino}-cyclopropanecarboxylic acid] are within 1.5-fold of each other in IC50: 2 nM for the first, 1.7 nM for the second.

First: Cc1cc(S(=O)(=O)Nc2cccc(-c3cc(C)c(C(=O)NC4(C(=O)O)CCOCC4)c(C)c3)c2)c(C)cc1Cl [Example 146, 4-{[3′-(4-Chloro-2,5-dimethyl-benzenesulfonylamino)-3,5-dimethyl-biphenyl-4-carbonyl]-amino}-tetrahydro-pyran-4-carboxylic acid]
Second: Cc1cc(S(=O)(=O)Nc2cccc(-c3cc(C)c(C(=O)NC4(C(=O)O)CCC4)c(C)c3)c2)c(C)cc1Cl [Example 147, 1-{[3′-(4-Chloro-2,5-dimethyl-benzenesulfonylamino)-3,5-dimethyl-biphenyl-4-carbonyl]-amino}-cyclobutanecarboxylic acid]
The IC50 of the first is 1.8-fold lower: 2 nM for the first, 3.5 nM for the second.

Going from `Cc1cc(S(=O)(=O)Nc2cccc(-c3cc(C)c(C(=O)N[C@@H](C)C(N)=O)c(C)c3)c2)c(C)cc1Cl` [Example 151, 3′-(4-Chloro-2,5-dimethyl-benzenesulfonylamino)-3,5-dimethyl-biphenyl-4-carboxylic acid ((S)-1-carbamoyl-ethyl)-amide] to `Cc1cc(S(=O)(=O)Nc2cccc(-c3cc(C)c(C(=O)N[C@@H](CO)C(N)=O)c(C)c3)c2)c(C)cc1Cl` [Example 153, 3′-(4-Chloro-2,5-dimethyl-benzenesulfonylamino)-3,5-dimethyl-biphenyl-4-carboxylic acid ((S)-1-carbamoyl-2-hydroxy-ethyl)-amide], the IC50 falls from 8 nM to 3 nM (2.7-fold). The second is the more potent here.

First: CCc1cc(-c2cccc(NS(=O)(=O)c3cc(C)c(Cl)cc3C)c2)ccc1C(=O)N[C@@H](C)C(=O)O [Example 154, (S)-2-{[3′-(4-Chloro-2,5-dimethyl-benzenesulfonylamino)-3-ethyl-biphenyl-4-carbonyl]-amino}-propionic acid]
Second: Cc1cc(S(=O)(=O)Nc2cccc(-c3ccc(CN[C@H](CO)C(=O)O)cc3)c2)c(C)cc1Cl [Example 157, (R)-2-{[3′-(4-Chloro-2,5-dimethyl-benzenesulfonylamino)-biphenyl-4-ylmethyl]-amino}-3-hydroxy-propionic acid]
The IC50 of the first is 2.8-fold lower: 1.7 nM for the first, 4.7 nM for the second.

For `Cc1cc(S(=O)(=O)Nc2cccc(-c3cc(C)c(C(=O)NC4(C(=O)O)CCN(C)CC4)c(C)c3)c2)c(C)cc1Cl` [Example 155, 4-{[3′-(4-Chloro-2,5-dimethyl-benzenesulfonylamino)-3,5-dimethyl-biphenyl-4-carbonyl]-amino}-1-methyl-piperidine-4-carboxylic acid], the IC50 was 2 nM.
